From patent publication US8138159B2, “Composition for inhibiting function of human Flt3” (Takara Bio Inc., priority 2003, dated 2012)

Tests used:
Format in all cases: cell-based, human
[1] = system: MV4-11 (ITD mutation) cells; test: cell growth with siRNA alone or siRNA cocktail, WST-1 (Example 7); settings: final concentration 1.2 μM, electroporation, 72 hours, n=6 mean
Description: As the composition of the present invention, a cocktail containing the synthesized siRNA1, 2 and 3, or siRNA3 alone, was examined for its growth inhibitory activity on MV4-11 (ITD mutation) cells. The synthesized siRNA1, 2 and 3 used were the same as in item (1) of Example 1 above.
A medium for MV4-11 cells used was the same as in item (2) of above Example 1, and the cells were cultured at 37° C. for 24 hours in an RPMI 1640 medium (manufactured by TAKARA BIO INC.) supplemented with 10% by volume fetal bovine serum (FBS) (referred to hereinafter as the culture medium) in the presence of 5% by volume CO2. Then, transfection of the cells with the synthesized siRNA3 was carried out in the following manner. […]
The cells added in an amount of 100 μl/well on the 96-well plate prepared in item (2) above were cultured at 37° C. in the presence of 5% by volume CO2. Seventy-two hours after the culture was initiated, the growth activity of the cells was determined using Premix WST-1 reagent (manufactured by TAKARA BIO INC.) according to a manufacturer's protocol. Each experiment was carried out with n=6, and the mean was determined. The relative growth ratio (%) as compared with the growth ability of the cells transfected with the control siRNA was determined.

[2] = system: MV4-11 cells (ITD mutation-highly expressing); test: cell growth activity, Premix WST1 (Example 2)
Description: (§1) The cells placed in a 96-well plate at a density of 2×10^4 cells/well were cultured in an RPMI medium (containing 10% by volume FBS). The cells were transfected with each of the synthesized (10 nM each) siRNAs, and after 20 hours, the cell growth activity was determined with Premix WST1 reagent (trade name, manufactured by TAKARA BIO INC.). Relative growth ability (%) compared with the growth ability of the control (cells subjected to transfection without adding an siRNA) was determined. Each experiment was carried out with n=3, and the mean was determined.

[3] = system: HL60 cells (WT-low expressing); test: cell growth activity, Premix WST1 (Example 2)
Description: as §1

[4] = system: EoL1 cells (WT-highly expressing); test: cell growth activity, Premix WST1 (Example 2)
Description: as §1

[5] = system: Flt3 mRNA; test: Flt3 mRNA interference by synthesized siRNA, real-time RT-PCR (Example 1); settings: for inhibition percentage (%) of the relative mRNA expression level (Flt3 mRNA/GAPDH mRNA): siRNA 200 pmol, Oligofectamin, after 24 hours, vs cells transfected without siRNA
Description: Each kind of cell selected from HL-60 cells [Flt3 WT (wild-type) low expressing cells; ATCC CCL-240], EoL-1 cells [Flt3 WT (wild-type) highly expressing cells; ECACC 94042252] and MV4-11 cells [Flt3/ITD highly expressing cells; ATCC CRL-9591] was cultured at 37° C. in an RPMI 1640 medium (manufactured by TAKARA BIO INC.) supplemented with 10% by volume fetal bovine serum (FBS) in the presence of 5% by volume CO2.
Then, the cells (2×10^5 cells/nil) were pre-cultured for 24 hours in a 6-well plate, then recovered, and suspended so as to give a density of 1.5×10^5 cells/ml in Opti-MEM (trade name, manufactured by Invitrogen), and the synthesized siRNA was added to the resulting suspension so as to give a final concentration of 200 pmol. Transfection was carried out using Oligofectamin (trade name, manufactured by Invitrogen) in an amount of 4 μl/reaction, according to an Invitrogen's protocol attached to Oligofectamin (trade name). As a control, the cells were subjected to similar operations without adding the siRNA. The unspecific influence of the siRNA was evaluated using an siRNA to a BCR/ABL chimera mRNA.
Confirmation of RNA interference of the target gene was carried out by determining change in mRNA level by a real-time RT-PCR method as shown below.
Using Oligofectamin (trade name, manufactured by Invitrogen), each kind of cell was transfected with the synthesized siRNA. After 24 hours, whole RNA was extracted from the resulting cells with TRIzol™ reagent (manufactured by Invitrogen), and the resulting product was treated with DNaseI (manufactured by TAKARA BIO INC.). The transfection, the extraction of the whole RNA and the treatment with DNaseI were carried out according to a manufacturer's protocol of the reagent used.
The real-time PCR method was carried out using a Real Time One Step RNA PCR Kit (trade name, manufactured by TAKARA BIO INC.), 100 ng of the resulting RNA as a template and a pair of primers (each 20 pmol), that is, an oligonucleotide having the nucleotide sequence of SEQ ID NO: 13 and an oligonucleotide having the nucleotide sequence of SEQ ID NO: 14. In the real-time RT-PCR method, change in fluorescence based on SYBER Green I (manufactured by TAKARA BIO INC.) was determined with Light Cycler (trade name, manufactured by Roche). The RNA level was standardized by similarly determining GAPDH mRNA with primers set forth in SEQ ID NOs: 15 and 16.
The PCR conditions were as follows: after incubation was carried out at 95° C. for 30 seconds, the reaction was carried out in 40 cycles each consisting of the reaction at 95° C. for 1 second, then at 60° C. for 10 seconds, and at 72° C. for 30 seconds.
The inhibition percentage (%) of the relative mRNA expression level (Flt3 mRNA/GAPDH mRNA) changed by using the synthesized siRNA, as calculated assuming that the relative mRNA expression level (Flt3 mRNA/GAPDH mRNA) of the cells only subjected to each operation of the transfection without adding the synthesized siRNA was 100%, was shown in Table 1.

[6] = siRNA 10 nM, after 20 hours, n=3 mean, control = transfection without siRNA
[7] = MV4-11 (ITD mutation-highly expressing)

siRNA3: siRNA to juxtamembrane region (Flt3/JMD region) (target SEQ ID NO: 7); sense SEQ ID NO: 8, antisense SEQ ID NO: 9 (sense UAUGAAUAUGAUCUCAAAUTT; antisense AUUUGAGAUCAUAUUCAUATT; chemistry not given here)
relative growth ratio (%) as compared with the cells transfected with the control siRNA (growth inhibition to) [1]: 46.5% | Ratio of cell-growth activation defining RNA interference effect in HL60 as 1 [2]: (0.41) | Relative growth ability (%) compared with the control [2, 6]: 37.5% | Ratio of cell-growth activation defining RNA interference effect in HL60 as 1 ([3]; HL60, the reference itself): (1) | Relative growth ability (%) compared with the control ([3]; HL60, siRNA 10 nM, after 20 hours, n=3 mean, control = transfection without siRNA): 90.3% | Ratio of cell-growth activation defining RNA interference effect in HL60 as 1 [4]: (0.50) | Relative growth ability (%) compared with the control [4, 6]: 45.1% | Relative ratio of inhibition defining RNA interference effect in EoL1 as 1 ([5]; EoL1 (WT-highly expressing), the reference itself): (1) | inhibition percentage (%) of the relative mRNA expression level (Flt3 mRNA/GAPDH mRNA) ([5]; EoL1 (WT-highly expressing)): 63% | selective inhibition of Flt3 mRNA expression relative to the inhibition ratio in the Flt3 low expressing cells ([5]; Flt3 highly expressing cells vs Flt3 low expressing cells): ≥ 1.6 fold | inhibition of Flt3 mRNA expression relative to the cells without using an siRNA ([5]; Flt3 highly expressing cells, regardless of the presence or absence of ITD mutation): 65% | inhibition percentage (%) of the relative mRNA expression level (Flt3 mRNA/GAPDH mRNA) ([5]; HL60 (WT-low expressing)): 38% | Relative ratio of inhibition defining RNA interference effect in EoL1 as 1 [5, 7]: (1) | inhibition percentage (%) of the relative mRNA expression level (Flt3 mRNA/GAPDH mRNA) [5, 7]: 65%
